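Growth conditions: 96-well plates. Treatment: test compound, 48 hours, 5 concentrations. Analysis: linear interpolation between bracketing concentrations; unreached endpoints set to highest concentration. Abbreviation: GI50, concentration required for 50% inhibition of growth. At the TGI there is no net growth.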
Tests used:
Test in all cases: NCI anticancer screen, dose series, 48 h
UO-31 renal = tested on: UO-31 renal
786-0 renal = tested on: 786-0 renal
CCRF-CEM leukemia = tested on: CCRF-CEM leukemia
UACC-62 melanoma = tested on: UACC-62 melanoma
SK-MEL-28 melanoma = tested on: SK-MEL-28 melanoma
K-562 leukemia = tested on: K-562 leukemia
BT-549 breast = tested on: BT-549 breast
M14 melanoma = tested on: M14 melanoma
T-47D breast = tested on: T-47D breast
NCI-H23 lung = tested on: NCI-H23 lung
OVCAR-3 ovarian = tested on: OVCAR-3 ovarian
HOP-62 NSCLC = tested on: HOP-62 NSCLC
DU-145 prostate = tested on: DU-145 prostate
HT29 colon = tested on: HT29 colon
SN12C renal = tested on: SN12C renal
A549 NSCLC = tested on: A549 NSCLC
NCI/ADR-RES ovarian = tested on: NCI/ADR-RES ovarian
NCI-H522 lung = tested on: NCI-H522 lung
LOX IMVI melanoma = tested on: LOX IMVI melanoma
UACC-257 melanoma = tested on: UACC-257 melanoma
MDA-MB-435 = tested on: MDA-MB-435
SNB-75 CNS = tested on: SNB-75 CNS
EKVX NSCLC = tested on: EKVX NSCLC
SNB-19 CNS = tested on: SNB-19 CNS
A498 renal = tested on: A498 renal
SK-MEL-5 melanoma = tested on: SK-MEL-5 melanoma
HL-60(TB) leukemia = tested on: HL-60(TB) leukemia
PC-3 prostate = tested on: PC-3 prostate
ACHN renal = tested on: ACHN renal
TK-10 renal = tested on: TK-10 renal
OVCAR-8 ovarian = tested on: OVCAR-8 ovarian
MALME-3M melanoma = tested on: MALME-3M melanoma
SK-MEL-2 melanoma = tested on: SK-MEL-2 melanoma
COLO 205 colon = tested on: COLO 205 colon
CAKI-1 renal = tested on: CAKI-1 renal
SR leukemia = tested on: SR leukemia
SF-295 CNS = tested on: SF-295 CNS
HCC-2998 colon = tested on: HCC-2998 colon
NCI-H226 lung = tested on: NCI-H226 lung
SW-620 colon = tested on: SW-620 colon
RXF 393 renal = tested on: RXF 393 renal
OVCAR-4 ovarian = tested on: OVCAR-4 ovarian
KM12 colon = tested on: KM12 colon
RPMI-8226 leukemia = tested on: RPMI-8226 leukemia
SF-268 CNS = tested on: SF-268 CNS
HCT-15 colon = tested on: HCT-15 colon
OVCAR-5 ovarian = tested on: OVCAR-5 ovarian
U251 CNS = tested on: U251 CNS
MDA-MB-231 breast = tested on: MDA-MB-231 breast
SF-539 CNS = tested on: SF-539 CNS
HCT-116 colon = tested on: HCT-116 colon
SK-OV-3 ovarian = tested on: SK-OV-3 ovarian
MDA-MB-468 breast = tested on: MDA-MB-468 breast
HOP-92 NSCLC = tested on: HOP-92 NSCLC
NCI-H460 lung = tested on: NCI-H460 lung
IGROV1 ovarian = tested on: IGROV1 ovarian

NS(=O)(=O)c1ccc(N=Nc2c(O)n(CC(=O)Nc3ccccc3)c3ccccc23)cc1
GI50 (UO-31 renal): 895 nM
TGI (UO-31 renal): 6950 nM
GI50 (786-0 renal): 1290 nM
TGI (786-0 renal): 6540 nM
GI50 (CCRF-CEM leukemia): 776 nM
TGI (CCRF-CEM leukemia): > 100000 nM
GI50 (UACC-62 melanoma): 520 nM
TGI (UACC-62 melanoma): 2810 nM
GI50 (SK-MEL-28 melanoma): 932 nM
TGI (SK-MEL-28 melanoma): 6060 nM
GI50 (K-562 leukemia): 895 nM
TGI (K-562 leukemia): > 100000 nM
GI50 (BT-549 breast): 2030 nM
TGI (BT-549 breast): 7730 nM
GI50 (M14 melanoma): 1140 nM
TGI (M14 melanoma): > 100000 nM
GI50 (T-47D breast): 1890 nM
TGI (T-47D breast): 21400 nM
GI50 (NCI-H23 lung): 801 nM
TGI (NCI-H23 lung): 3460 nM
GI50 (OVCAR-3 ovarian): 873 nM
TGI (OVCAR-3 ovarian): 16000 nM
GI50 (HOP-62 NSCLC): 1800 nM
TGI (HOP-62 NSCLC): 5500 nM
GI50 (DU-145 prostate): 794 nM
TGI (DU-145 prostate): 48300 nM
GI50 (HT29 colon): 749 nM
TGI (HT29 colon): 2820 nM
GI50 (SN12C renal): 1140 nM
TGI (SN12C renal): 6050 nM
GI50 (A549 NSCLC): 738 nM
TGI (A549 NSCLC): 4180 nM
GI50 (NCI/ADR-RES ovarian): > 100000 nM
TGI (NCI/ADR-RES ovarian): > 100000 nM
GI50 (NCI-H522 lung): 589 nM
TGI (NCI-H522 lung): 3800 nM
GI50 (LOX IMVI melanoma): 725 nM
TGI (LOX IMVI melanoma): 11300 nM
GI50 (UACC-257 melanoma): 2020 nM
TGI (UACC-257 melanoma): 20300 nM
GI50 (MDA-MB-435): 635 nM
TGI (MDA-MB-435): 6100 nM
GI50 (SNB-75 CNS): 1940 nM
TGI (SNB-75 CNS): 8220 nM
GI50 (EKVX NSCLC): 3350 nM
TGI (EKVX NSCLC): 39300 nM
GI50 (SNB-19 CNS): 1670 nM
TGI (SNB-19 CNS): 15100 nM
GI50 (A498 renal): 1290 nM
TGI (A498 renal): 5390 nM
GI50 (SK-MEL-5 melanoma): 1000 nM
TGI (SK-MEL-5 melanoma): 5500 nM
GI50 (HL-60(TB) leukemia): 443 nM
TGI (HL-60(TB) leukemia): > 100000 nM
GI50 (PC-3 prostate): 1610 nM
TGI (PC-3 prostate): 10900 nM
GI50 (ACHN renal): 606 nM
TGI (ACHN renal): 4530 nM
GI50 (TK-10 renal): 2640 nM
TGI (TK-10 renal): 25800 nM
GI50 (OVCAR-8 ovarian): 646 nM
TGI (OVCAR-8 ovarian): 3160 nM
GI50 (MALME-3M melanoma): 1090 nM
TGI (MALME-3M melanoma): 5150 nM
GI50 (SK-MEL-2 melanoma): 2250 nM
TGI (SK-MEL-2 melanoma): 6900 nM
GI50 (COLO 205 colon): 1240 nM
TGI (COLO 205 colon): 6740 nM
GI50 (CAKI-1 renal): 434 nM
TGI (CAKI-1 renal): 2360 nM
GI50 (SR leukemia): 194 nM
TGI (SR leukemia): > 100000 nM
GI50 (SF-295 CNS): 1230 nM
TGI (SF-295 CNS): 5160 nM
GI50 (HCC-2998 colon): 2200 nM
TGI (HCC-2998 colon): 8560 nM
GI50 (NCI-H226 lung): 1400 nM
TGI (NCI-H226 lung): 4750 nM
GI50 (SW-620 colon): 402 nM
TGI (SW-620 colon): 2260 nM
GI50 (RXF 393 renal): 1360 nM
TGI (RXF 393 renal): 5060 nM
GI50 (OVCAR-4 ovarian): 930 nM
TGI (OVCAR-4 ovarian): 69700 nM
GI50 (KM12 colon): 1030 nM
TGI (KM12 colon): 22500 nM
GI50 (RPMI-8226 leukemia): 1130 nM
TGI (RPMI-8226 leukemia): > 100000 nM
GI50 (SF-268 CNS): 3590 nM
TGI (SF-268 CNS): > 100000 nM
GI50 (HCT-15 colon): 533 nM
TGI (HCT-15 colon): > 100000 nM
GI50 (OVCAR-5 ovarian): 3520 nM
TGI (OVCAR-5 ovarian): 26100 nM
GI50 (U251 CNS): 1170 nM
TGI (U251 CNS): 3880 nM
GI50 (MDA-MB-231 breast): 1400 nM
TGI (MDA-MB-231 breast): 3920 nM
GI50 (SF-539 CNS): 538 nM
TGI (SF-539 CNS): 2030 nM
GI50 (HCT-116 colon): 460 nM
TGI (HCT-116 colon): 2580 nM
GI50 (SK-OV-3 ovarian): 3110 nM
TGI (SK-OV-3 ovarian): 10200 nM
GI50 (MDA-MB-468 breast): 768 nM
TGI (MDA-MB-468 breast): 4650 nM
GI50 (HOP-92 NSCLC): 1600 nM
TGI (HOP-92 NSCLC): 6560 nM
GI50 (NCI-H460 lung): 544 nM
TGI (NCI-H460 lung): 3070 nM
GI50 (IGROV1 ovarian): 2790 nM
TGI (IGROV1 ovarian): 14500 nM

Reference: PubChem BioAssay (NCI)
